Molecules are shown by their SMILES. “Also recorded” adds a separate entry of the source.

How the values of series [1] were obtained: The lumenal pH (pHL) of liposomes was assayed with pyranine, a fluorescent dye with a pKa~7.3 and a λex =405 nm in its acid form (-3 charge) and a λex =455 nm in its basic form (-4 charge). To prepare pyranine loaded liposomes, lipids (2 mg POPC, 1 mg cholesterol) supplied in chloroform suspension were dried in a round bottom flask under argon for 2 hours. The lipids were then resuspended in acidic or alkaline liposome buffer (300 mM KCl, 20 mM MES, 20 mM MOPS, 20 mM Tricine titrated with KOH to either pH 6.2 or pH 8.1) containing 0.5 mM pyranine. The suspension was incubated at room temperature overnight, then freeze-thawed 6×. Unilamellar liposomies were prepared by extrusion 3× through 2 stacked 100 nm Nucleopore (Corning/Costar Scientific, Acton, Mass.) polycarbonate filters in an Avestin (Vancouver, BC) extruder at 600 PSI.
The pyranine fluorescence was calibrated as a function of pH by diluting the liposomes with pH 6.2 into a weakly buffered solution of identical pH (300 mM KCl, 1 mM MES, 1 mM MOPS, 1 mM Tricine, pH 6.2), 1 μM nigericin to allow rapid equilibration with external pH and 5 mM DPX to quench external pyranine. The ratio of the fluorescence emission at λem =510 nm was monitored with dual excitation wavelengths of λex =405 nm and λex =455 nm. Sequential aliquots of 0.1 mM glycylglycine, pH 8.4 were added to increase pH (See FIG. 5). The fluorescence was measured after each addition and the pH was measured using a pH meter. […] The cahiration curve for the liposomes of lumenal pH 8.1 was generated identically except sequential aliquots of 0.1 mM K-MES pH 5.0 were added for titration and the curve was generated between pH 8.1 and pH 6.4.
To measure the rate of pH dissipation of liposomes with lumenal pH=6.2, the liposomes were diluted in weakly buffered solution of identical pH as described above, but with no nigericin. […] The external pH was shifted to pH 7.3 by addition of 5 mM glycylglycine pH 8.4 and the fluorescence ratio monitored. After 10 minutes, 1 μM nigericin was added to dissipate the remaining pH gradient. The pHL was calculated using the equation pH=x*log(λex =405 nm/[…])+c, were x and c are constants from the least square fit of the titration curve. To measure the rate of pH dissipation of liposomes with pHL =8.1, the identical procedure was followed except 5 mM K-MES pH 5.0 was added to shift the external pH to 6.9.
Liposomes were loaded with pyranine, a hydrophilic, non-permeable fluorescent pH indicator to assay proton permeability. […] Two steps were taken to ensure that only pHL was measured and to permit the discrimination between dissipation of pH gradient and the lysis or dye leakage from liposomes.

For series [2] the following is noted: NMR in 10% Triton solution; cited from earlier work.
Series [3] deals with yeast vacuoles. Nature of the series: Acidification of yeast vacuoles (acridine orange). The series is classed as biochemical, S. cerevisiae. The method, then:
Vacuoles from S. cerevisiae were prepared from the protease deficient strain BJ2407 (Yeast Genetic Stock Center, University of California, Berkeley) by sequential floatation through 12% and 8% Ficoll 400 cushion as described previously [Roberts et al., Methods Enzymol, 194:644-661 (1991)] with the single modification that 1× protease inhibitor mix and 1 mM DTT was included in each step. […] Acidification was measured using AO as described above. For acidification in chloride-free solution, gluconate or glutamate was used in vesicle buffer instead of chloride.
ATP (1.5 mM) was added at 50 sec to initiate acidification and at 400 sec nigericin (1 μM) was added to dissipate pH gradients.

Series [4] has as its system recycling endosomes of MCF-7/ADR cells. Nature of the series: In vitro acidification of recycling endosomes (FITC-transferrin). It is filed as biochemical. Here is the method:
Acidification from the recycling endosomal fraction was monitored by first incubating cells with FITC-transferrin for 30 minutes before lysis and isolation of microsomes. Acidification was monitored by excitation of the FITC fluorophore at 450 and 488 nm and measuring λem =520 nm as described previously.
To specifically examine the acidification of the endosomes in vitro, in vitro acidification was assayed using FITC-transferrin which is constrained by the transferrin receptor to the endocytic pathway. MCF-7/ADR cells were incubated with FITC-transferrin before lysis and isolation of microsomes. Since this assay is not based on the redistribution of probes, it further serves as verification that AO quenching resulted from vesicular acidification. Upon addition of ATP, there was a decrease in the ratio of the FITC-emission (FIG. 1C). This signal was the consequence of acidification, since it was reversed upon the addition of nigericin.

The test system of series [5] is yeast vATPase. Put plainly: Bafilomycin-inhibitable ATPase activity of yeast vATPase. It is filed as biochemical, S. cerevisiae. Particulars: 5 μM, chloride and gluconate buffer. The method, then:
Vacuoles were diluted in KCl or K-gluconate vesicle buffer. […] Each of the four resulting samples was again split into two and either carrier or […] bafilomycin A1 was added. Next, 2 mM Tris-ATP was added to each sample and the vacuoles were incubated at 30° C. for 15 minutes. To measure the phosphate concentration from ATP hydrolysis, equal volume of Taussky-Shorr Reagent (1% w/v ainmoniummolybdate (w/v), 2.7% v/v sulfuric acid, and 5% w/v ferrous sulfate hexahydrate) was added and the samples were developed for 15 minutes. The A660 was measured (Spectronic Genesys 2) which is linearly related to phosphate concentration. The bafilomycin inlubtable ATPase activity was taken as the difference between the ATPase activity of each condition with or without 100 nM bafilomycin A1.
Replacing chloride with gluconate decreased the bafilomycin-inhibitable ATPase activity (FIG. 3B), further confirming that chloride provided the counter-ion transport to dissipate the Vm.

Series [6] can be described thus: Liposome chloride concentration (lucigenin).
Series [7] concerns E. coli inverted membrane vesicles. Put plainly: Acidification of E. coli inverted membrane vesicles (acridine orange). The series is classed as biochemical. Particulars: 0.63 μM, 2 μM, 10 μM; similar dose dependence as mammalian and yeast vesicles. Here is the method: InV were prepared from the DH5α strain as described [Simon and Blobel, Cell 69:677-684 (1992)]. Acidification was measured using AO as described above.
Unlike mammalian or yeast vesicles, InV utilize the F0 F1 -ATPase for acidification and are composed of different types of lipids, including an abundance of cardiolipin and a lack of sterols.

Regarding `CC/C(=C(\c1ccccc1)c1ccc(OCCN(C)C)cc1)c1ccccc1` [tamoxifen], the “effect of addition on pHL without pre-existing pH gradient” value in series [1] (pHL 6.2 = external pH, tamoxifen 2 μM, 8 μM, NH4Cl 5 mM) is reported as “alkalinization of liposomes, followed by more rapid pH equilibration”. Moreover, the “effect on pH equilibration with chloride included” value in series [1] (pHL 8.1, 300 mM K-glutamate plus 90 mM KCl, external pH shifted to 6.9) is reported as “more rapid pH equilibration”. The “effect on dissipation of pH in the absence of chloride” value in series [1] (pHL 8.1, 300 mM K-glutamate, external pH shifted to 6.9) is on record as “no effect on the dissipation of pH”. For the same compound, in series [1] (pHL 8.1, external pH shifted to 6.9, tamoxifen 0.5-8 μM, NH4Cl 5 mM, FCCP 1 μM, valinomycin 1 μM), the “rate of pH gradient dissipation, alkaline lumen” value was “dissipated more quickly with increasing concentrations; also recorded: faster than saturating concentration of FCCP”. In addition, the pKa in series [2] was 6.9. In addition, in series [3] (added at 250 sec, tamoxifen 2 μM, ammonium 1 mM), the “effect of addition to pre-acidified vacuoles” value is “rapid alkaline step followed by slower alkalinization”. The “concentration giving complete inhibition of acidification” value in series [3] (pre-equilibrated, 1.5 mM ATP, KCl buffer) was determined as 8 µM. In series [3] (pre-equilibrated, tamoxifen 2 μM or 8 μM, ammonium chloride 1 mM), the “inhibition of vacuole acidification” value is listed as “dose dependent inhibition of acidification”. For the same compound, the figures for the “effect on ATP-dependent acidification of recycling endosomes” value in series [4] (2.5 μM added after ATP) and in series [4] (concentration raised an additional 2.5 μM) were “partially reversed the acidification” and “farher reduced”, respectively. The “effect on bafilomycin-inhibitable ATPase activity” value in series [5] is listed as “increase of ATPase activity”. Also, the “rate of chloride influx in the presence of valinomycin” value in series [6] (4 μM tamoxifen with 1 μM valinomycin, 50 mM KCl) was “increased the rate of chloride influx”. Moreover, the “rate of chloride influx into liposomes” value in series [6] (after addition of 50 mM KCl, tamoxifen 2, 4, 8 μM, valinomycin 1 μM) was “dose dependent increase in the rate of chloride influx”. The “effect on ATP-dependent acidification of InV” value in series [7] is listed as “inhibited acidification”.

In general, pKa refers to the pH at which an ionisable group is half protonated.

The record behind these values is patent US6204067A, “Methods of identifying modulators of the estrogen receptor” (Board of Trustees Operating Michigan State University, priority 1999, dated 2001).
